From PMC9026082, “Madecassic Acid—A New Scaffold for Highly Cytotoxic Agents” (International Journal of Molecular Sciences, 2022)
Where a name gives a salt, the structure may show the parent alone.

What was measured:
[1] = test system: several human tumor cell lines (A375, HT29, MCF-7, A2780, and HeLa); experiment: SRB assays, cell line not given; format: cell-based; details: for EC50: Homo sapiens, SRB assays, lowest value of the series, cell line not stated, read-out: EC50 values as low as (analogs of madecassic acid)
From the text: To assess their cytotoxicity parent, triterpenoic acids 1–3, their acetates 4–6, the amides 7–18, as well as the respective rhodamine B conjugates 19–24 were subjected to SRB assays employing several human tumor cell lines (A375, HT29, MCF-7, A2780, and HeLa) as well as non-malignant fibroblasts (NIH 3T3). […]
(§1) 2. Cytotoxicity assay (SRB assay)
(§2) The cell lines were obtained from Department of oncology (Martin-Luther-University Halle Wittenberg). Cultures were maintained as monolayers in RPMI 1640 medium with L-glutamine (Capricorn Scientific GmbH, Ebsdorfergrund, Germany) supplemented with 10% heat inactivated fetal bovine serum (Sigma -Aldrich Chemie GmbH, Steinheim, Germany) and penicillin/streptomycin (1%, Capricorn Scientific GmbH, Ebsdorfergrund, Germany) at 37 °C in a humidified atmosphere with 5% CO 2.
(§3) The cytotoxicity of the compounds was eva luated using the sulforhodamine -B (Kiton-Red S, ABCR) micro culture colorimetric assay using […] in 96 -well plates with the seeding of the cells on day 0 applying appropriate cell densities to prevent confluence of the cells during the period of the experiment. On day 1, the cells were treated with six di fferent concentrations (1, 3, 7, 12, 20 and 30 μM); thereby, the final concentration of DMSO was always < 0.5%, generally regarded as non-toxic to the cells. On day 4, the supernatant medium was discarded; the cells were fixed with 10 % trichloroacetic acid. After another day at 4 °C, the cells were washed in a strip washer and dyed with the SRB solution (100 μL, 0.4% in 1% acetic acid) for about 20 min to be followed by washing of the plates (four times, 1% acetic acid) and air -drying […]
(§4) overnight. Furthermore, tris base solution (200 μL, 10 mM) was added to each well and absorbance was measured at λ = 570 nm employing a reader (96 wells, Tecan Spectra, Crailsheim, Germany). The EC50 values were averaged from three independent experiments performed each in triplicate calculated from semi logarithmic dose response curves applying a non-linear four-parameter Hills-slope equation (GraphPad Prism5; variables top and bottom were set to 100 and 0, respectively).

[2] = test system: HT29 (colorectal carcinoma); experiment: SRB cytotoxicity assay, HT29; format: cell-based, human; details: Homo sapiens, HT-29, 72 h of treatment, cut-off 30 μM
From the text: (§5) To assess their cytotoxicity parent, triterpenoic acids 1–3, their acetates 4–6, the amides 7–18, as well as the respective rhodamine B conjugates 19–24 were subjected to SRB assays employing several human tumor cell lines (A375, HT29, MCF-7, A2780, and HeLa) as well as non-malignant fibroblasts (NIH 3T3).
(§6) A detailed description of materials and methods can be found in the Supplementary Materials File. For biological screening, the cell lines were obtained from ATCC: A375 (CRL-1619), HT29 (HTB-38), MCF7 (HTP-22), A2780 (HTP-77), HeLa (CCL-2), and NIH 3T3 (CRL-1573) ^13C NMR spectra (Supplementary Materials) were recorded as APT spectra showing CH and CH3 groups as positive signals and CH2 groups and quaternary carbons as negative signals. […]
as §1, §2, §3, §4

[3] = test system: A2780 (ovarian carcinoma); experiment: SRB cytotoxicity assay, A2780; format: cell-based, human; details: Homo sapiens, A2780; SRB assay, 72 h of treatment; cut-off 30 μM
From the text: as §5, §6, §1, §2, §3, §4

[4] = test system: MCF7 (breast adenocarcinoma); experiment: SRB cytotoxicity assay, MCF7; format: cell-based, human; details: Homo sapiens, MCF7, 72 h of treatment, cut-off 30 μM
From the text: as §5, §6, §1, §2, §3, §4

[5] = test system: NIH 3T3 (non-malignant fibroblasts); experiment: SRB cytotoxicity assay, NIH 3T3; format: cell-based; details: Mus musculus, NIH3T3, 72 h of treatment, cut-off 30 μM
From the text: as §5, §6, §1, §2, §3, §4

A375 (melanoma) = experiment: SRB cytotoxicity assay, A375; format: cell-based, human; details: 72 h of treatment, cut-off 30 μM
From the text: as §5, §6, §1, §2, §3, §4

| Compound | melting point [°C] | EC50 [2] [µM] | EC50 [3] [µM] | EC50 [4] [µM] | EC50 [5] [µM] | EC50 (A375 (melanoma); Homo sapiens, A-375, 72 h) [µM] | further results |
| --- | --- | --- | --- | --- | --- | --- | --- |
| CCN(CC)c1ccc2c(-c3ccccc3C(=O)N3CCCN(C(=O)[C@]45CCC(C)(C)C[C@H]4C4=CC[C@@H]6[C@@]7(C)CC[C@H](OC(C)=O)[C@@](C)(COC(C)=O)[C@@H]7CC[C@@]6(C)[C@]4(C)CC5)CC3)c3ccc(=[N+](CC)CC)cc-3oc2c1 (as salt: chloride) [Compound 22] | 243 to 248 |  |  |  |  |  |  |
| CCN(CC)c1ccc2c(-c3ccccc3C(=O)N3CCN(C(=O)[C@]45CC[C@@H](C)[C@H](C)[C@H]4C4=CC[C@@H]6[C@@]7(C)C[C@@H](OC(C)=O)[C@H](OC(C)=O)[C@@](C)(COC(C)=O)[C@@H]7[C@H](O)C[C@@]6(C)[C@]4(C)CC5)CC3)c3ccc(=[N+](CC)CC)cc-3oc2c1 (as salt: chloride) [Compound 23, N-{6-Diethylamino-9-[2-({4[ (2α,3β,4α,6β)-2,3,23-tris(acetyloxy)-6-hydroxy-28-oxours-12-en-28-yl)-1-piperazinyl]carbonyl]phenyl]-3H-xanthen-3-ylidene)-N-ethylethanaminium Chloride] | 228 to 233 |  |  |  |  |  |  |
| CCN(CC)c1ccc2c(-c3ccccc3C(=O)N3CCCN(C(=O)[C@]45CC[C@@H](C)[C@H](C)[C@H]4C4=CC[C@@H]6[C@@]7(C)C[C@@H](OC(C)=O)[C@H](OC(C)=O)[C@@](C)(COC(C)=O)[C@@H]7[C@H](O)C[C@@]6(C)[C@]4(C)CC5)CC3)c3ccc(=[N+](CC)CC)cc-3oc2c1 (as salt: chloride) [Compound 24, N-{6-Diethylamino-9-[2-({4[ (2α,3β,4α,6β)-2,3,23-tris(acetyloxy)-6-hydroxy-28-oxours-12-en-28-yl)-1,4-diazepan-1-yl}carbonyl]phenyl]-3H-xanthen-3-ylidene)-N-ethylethanaminium Chloride] | 269 to 273 |  |  |  |  |  |  |
| C[C@H]1[C@H](C)CC[C@]2(C(=O)O)CC[C@]3(C)C(=CC[C@@H]4[C@@]5(C)C[C@@H](O)[C@H](O)[C@@](C)(CO)[C@@H]5[C@H](O)C[C@]43C)[C@H]12 [Compound 3, Madecassic Acid] |  | > 30 | > 30 | > 30 | > 30 | > 30 | EC50 [1]: ≥ 0.015 µM |
| CC(=O)OC[C@@]1(C)[C@@H]2[C@H](O)C[C@]3(C)[C@H](CC=C4[C@@H]5[C@@H](C)[C@H](C)CC[C@]5(C(=O)O)CC[C@]43C)[C@@]2(C)C[C@@H](OC(C)=O)[C@@H]1OC(C)=O [Compound 6, (2α,3β,4α,6β) 2,3,23-Tris(acetyloxy)-6-hydroxyurs-12-en-28-oic Acid] |  | 14.5 ± 1.1 | 8.1 ± 0.7 | 7.1 ± 0.6 | 7.6 ± 0.8 | 3.5 ± 0.5 | EC50 [1]: ≥ 0.015 µM |
| CC(=O)O[C@H]1CC[C@]2(C)[C@H]3CC=C4[C@@H]5CC(C)(C)CC[C@]5(C(=O)NCc5ccccc5)CC[C@@]4(C)[C@]3(C)CC[C@H]2[C@]1(C)C=O [Compound 7, (3β,4α) 3-Acetyloxy-N-(benzyl)-23-oxo-olean-12-en-28-amide] | 119 to 121 | 10.7 ± 1.8 | 4.4 ± 0.3 | 8.8 ± 1.6 | 18.5 ± 4.6 | 3.3 ± 0.3 |  |
| CC(=O)O[C@H]1CC[C@]2(C)[C@H]3CC=C4[C@@H]5CC(C)(C)CC[C@]5(C(=O)Nc5ccccc5)CC[C@@]4(C)[C@]3(C)CC[C@H]2[C@]1(C)C=O [Compound 8, (3β,4α) 3-Acetyloxy-N-(phenyl)-23-oxo-olean-12-en-28-amide] | 150 to 152 | > 30 | 19.9 ± 1.4 | > 30 | > 30 | 7.9 ± 3.3 |  |
| CC(=O)O[C@H]1CC[C@]2(C)[C@H]3CC=C4[C@@H]5CC(C)(C)CC[C@]5(C(=O)N5CCNCC5)CC[C@@]4(C)[C@]3(C)CC[C@H]2[C@]1(C)C=O [Compound 9, (3β,4α) 3-Acetyloxy-N-(piperazinyl)-23-oxo-olean-12-en-28-amide] | 150 to 154 |  |  |  |  |  |  |
| CC(=O)O[C@H]1CC[C@]2(C)[C@H]3CC=C4[C@@H]5CC(C)(C)CC[C@]5(C(=O)N5CCCNCC5)CC[C@@]4(C)[C@]3(C)CC[C@H]2[C@]1(C)C=O [Compound 10, (3β,4α) 3-Acetyloxy-N-(homopiperazinyl)-23-oxo-olean-12-en-28-amide] | 176 to 179 |  |  |  |  |  |  |
| CC(=O)OC[C@@]1(C)[C@@H]2CC[C@]3(C)[C@H](CC=C4[C@@H]5CC(C)(C)CC[C@]5(C(=O)NCc5ccccc5)CC[C@]43C)[C@@]2(C)CC[C@@H]1OC(C)=O [Compound 11, (3β,4α) 3,23-Bis(acetyloxy)-N-(benzyl)-olean-12-en-28-amide] | 210 to 214 | 3.8 ± 0.7 | 1.3 ± 0.3 | 3.4 ± 0.4 | > 30 | 1.1 ± 0.6 |  |
| CC(=O)OC[C@@]1(C)[C@@H]2CC[C@]3(C)[C@H](CC=C4[C@@H]5CC(C)(C)CC[C@]5(C(=O)Nc5ccccc5)CC[C@]43C)[C@@]2(C)CC[C@@H]1OC(C)=O [Compound 12, (3β,4α) 3,23-Bis(acetyloxy)-N-(phenyl)-olean-12-en-28-amide] | 210 to 214 | 1.9 ± 0.6 | 0.8 ± 0.2 | 1.9 ± 0.1 | > 30 | 0.66 | EC50 (A375 (melanoma)): 0.6 ± 0.2 µM |
| CC(=O)OC[C@@]1(C)[C@@H]2CC[C@]3(C)[C@H](CC=C4[C@@H]5CC(C)(C)CC[C@]5(C(=O)N5CCNCC5)CC[C@]43C)[C@@]2(C)CC[C@@H]1OC(C)=O [Compound 13, (3β,4α)3,23-Bis(acetyloxy)-N-(piperazinyl)-olean-12-en-28-amide] | 183 to 187 |  |  |  |  |  |  |
| CC(=O)OC[C@@]1(C)[C@@H]2CC[C@]3(C)[C@H](CC=C4[C@@H]5CC(C)(C)CC[C@]5(C(=O)N5CCCNCC5)CC[C@]43C)[C@@]2(C)CC[C@@H]1OC(C)=O [Compound 14, (3β,4α)3,23-Bis(acetyloxy)-N-(homopiperazinyl)-olean-12-en-28-amide] | 176 to 180 |  |  |  |  |  |  |
| CC(=O)OC[C@@]1(C)[C@@H]2[C@H](O)C[C@]3(C)[C@H](CC=C4[C@@H]5[C@@H](C)[C@H](C)CC[C@]5(C(=O)N5CCNCC5)CC[C@]43C)[C@@]2(C)C[C@@H](OC(C)=O)[C@@H]1OC(C)=O [Compound 17, (2α,3β,4α,6β) 2,3,23-Tris(acetyloxy)-N-(piperazinyl)-6-hydroxyurs-12-en-28-amide] | 133 to 138 |  |  |  |  |  |  |
| CC(=O)OC[C@@]1(C)[C@@H]2[C@H](O)C[C@]3(C)[C@H](CC=C4[C@@H]5[C@@H](C)[C@H](C)CC[C@]5(C(=O)N5CCCNCC5)CC[C@]43C)[C@@]2(C)C[C@@H](OC(C)=O)[C@@H]1OC(C)=O [Compound 18, (2α,3β,4α,6β) 2,3,23-Tris(acetyloxy)-N-(homopiperazinyl)-6-hydroxyurs-12-en-28-amide] | 146.5 to 150.5 |  |  |  |  |  |  |
| CCN(CC)c1ccc2c(-c3ccccc3C(=O)N3CCCN(C(=O)[C@]45CCC(C)(C)C[C@H]4C4=CC[C@@H]6[C@@]7(C)CC[C@H](OC(C)=O)[C@@](C)(COC(C)=O)[C@@H]7CC[C@@]6(C)[C@]4(C)CC5)CC3)c3ccc(=[N+](CC)CC)cc-3oc2c1 [Compound 22] |  | 0.083 ± 0.02 | 0.018 ± 0.001 | 0.086 ± 0.01 | 0.441 ± 0.12 | 0.031 ± 0.007 |  |
| COc1cccc2c1C(=O)c1c(O)c3c(c(O)c1C2=O)C[C@@](O)(C(=O)CO)C[C@@H]3O[C@H]1C[C@H](N)[C@H](O)[C@H](C)O1 [DX, Doxorubicin, reference compound] |  | 0.9 ± 0.2 | 0.02 ± 0.01 | 1.1 ± 0.3 | 1.7 ± 0.3 |  |  |
| CCN(CC)c1ccc2c(-c3ccccc3C(=O)O)c3ccc(=[N+](CC)CC)cc-3oc2c1 [rhodamine B, reference compound] |  |  |  |  |  |  | cytotoxicity ([1]; SRB assay, cut-off 30 μM): not cytotoxic |
